# From ChEMBL document CHEMBL4219129, “Design, synthesis and biological evaluation of spiropyrimidinetriones oxazolidinone derivatives as antibacterial agents” (2018)
# Tests used:
# Format in all cases: functional
# [1] = tested on: Enterococcus faecium; experiment: Antibacterial activity against vancomycin-resistant Enterococcus faecium R1
# [2] = tested on: Enterococcus faecium; experiment: Antibacterial activity against Enterococcus faecium 575
# [3] = tested on: Staphylococcus aureus; experiment: Antibacterial activity against PVL positive Staphylococcus aureus
# [4] = tested on: Staphylococcus aureus; experiment: Antibacterial activity against Staphylococcus aureus ATCC 29213
# [5] = tested on: Staphylococcus aureus; experiment: Antibacterial activity against Staphylococcus aureus FDA 209P
# [6] = tested on: Staphylococcus aureus; experiment: Antibacterial activity against methicillin-resistant Staphylococcus aureus 562
# [7] = tested on: Staphylococcus aureus; experiment: Antibacterial activity against methicillin-resistant Staphylococcus aureus 1201984
# [8] = tested on: Staphylococcus aureus; experiment: Antibacterial activity against methicillin-resistant Staphylococcus aureus DB-00026
# [9] = tested on: Staphylococcus aureus; experiment: Antibacterial activity against methicillin-resistant Staphylococcus aureus USA300 BAA-1556
# [10] = tested on: Staphylococcus aureus; experiment: Antibacterial activity against Staphylococcus aureus Mu50 ATCC 700699
# [11] = tested on: Staphylococcus aureus; experiment: Antibacterial activity against linezolid-resistant Staphylococcus aureus O-128
# [12] = tested on: Staphylococcus aureus; experiment: Antibacterial activity against […] Staphylococcus aureus ATCC 13709 SMITH
# [13] = tested on: Staphylococcus epidermidis; experiment: Antibacterial activity against Staphylococcus epidermidis ATCC 12228
# [14] = tested on: Staphylococcus epidermidis; experiment: Antibacterial activity against methicillin-resistant Staphylococcus epidermidis ATCC 35984
# [15] = tested on: Staphylococcus epidermidis; experiment: Antibacterial activity against linezolid-resistant Staphylococcus epidermidis 1117174
# [16] = tested on: Staphylococcus epidermidis; experiment: Antibacterial activity against linezolid-resistant Staphylococcus epidermidis 1089191
# [17] = tested on: Escherichia coli; experiment: Antibacterial activity against TolC-deficient Escherichia coli
# [18] = tested on: Escherichia coli; experiment: Antibacterial activity against Escherichia coli MG1655; conditions: K-12 substr. MG1655
# [19] = tested on: Enterococcus faecalis; experiment: Antibacterial activity against Enterococcus faecalis ATCC 51299
# [20] = tested on: Enterococcus faecalis; experiment: Antibacterial activity against linezolid-resistant Enterococcus faecalis ATCC 29212
# [21] = tested on: Enterococcus faecium; experiment: Antibacterial activity against Enterococcus faecium ATCC 19434
# [22] = tested on: Enterococcus faecium; experiment: Antibacterial activity against vancomycin-resistant Enterococcus faecium 6A
# [23] = tested on: Enterococcus faecium; experiment: Antibacterial activity against vancomycin-resistant Enterococcus faecium 03080 DS
# [24] = tested on: Enterococcus faecium; experiment: Antibacterial activity against Enterococcus faecium ATCC 35667
# [25] = tested on: Enterococcus faecalis; experiment: Antibacterial activity against Enterococcus faecalis ATCC 19434
# [26] = tested on: Enterococcus faecalis; experiment: Antibacterial activity against Enterococcus faecalis ATCC 29212
# [27] = tested on: Enterococcus faecium; experiment: Antibacterial activity against vancomycin-resistant Enterococcus faecium 134
# [28] = tested on: Enterococcus faecium; experiment: Antibacterial activity against Enterococcus faecium 45/146
# [29] = tested on: Enterococcus faecium; experiment: Antibacterial activity against linezolid-resistant Enterococcus faecium 303
# [30] = tested on: Enterococcus faecium; experiment: Antibacterial activity against Enterococcus faecium NLNZ 572
# [31] = tested on: Enterococcus faecium; experiment: Antibacterial activity against vancomycin-resistant Enterococcus faecium 31/132
# [32] = tested on: Enterococcus faecium; experiment: Antibacterial activity against vancomycin-resistant Enterococcus faecium 32/133
structure (smiles),measurement,setting,value
CC(=O)NC[C@H]1CN(c2ccc(-c3ccc4c(c3)CC3(C(=O)NC(=O)NC3=O)C3CCCCN43)c(F)c2)C(=O)O1 (stereo not given in full),MIC,[1],1 µg/mL
same,MIC,[2],2 µg/mL
same,MIC,[3],4 µg/mL
same,MIC,[4],2 µg/mL
same,MIC,[5],2 µg/mL
same,MIC,[6],≤ 1 µg/mL
same,MIC,[7],2 µg/mL
same,MIC,[8],2 µg/mL
same,MIC,[9],2 µg/mL
same,MIC,[10],≤ 1 µg/mL
same,MIC,[11],8 µg/mL
same,MIC,[12],16 µg/mL
same,MIC,[13],2 µg/mL
same,MIC,[14],≤ 1 µg/mL
same,MIC,[15],> 32 µg/mL
same,MIC,[16],> 32 µg/mL
same,MIC,[17],4 µg/mL
same,MIC,[18],> 32 µg/mL
same,MIC,[19],1 µg/mL
same,MIC,[20],4 µg/mL
same,MIC,[21],2 µg/mL
same,MIC,[22],1 µg/mL
same,MIC,[23],1 µg/mL
same,MIC,[24],1 µg/mL
same,MIC,[25],2 µg/mL
same,MIC,[26],2 µg/mL
same,MIC,[27],4 µg/mL
same,MIC,[28],2 µg/mL
same,MIC,[29],16 µg/mL
same,MIC,[30],4 µg/mL
same,MIC,[31],2 µg/mL
same,MIC,[32],4 µg/mL
COC(=O)NC[C@H]1CN(c2ccc(-c3ccc4c(c3)CC3(C(=O)NC(=O)NC3=O)C3CCCN43)c(F)c2)C(=O)O1 (stereo not given in full),MIC,[1],8 µg/mL
same,MIC,[2],16 µg/mL
same,MIC,[3],2 µg/mL
same,MIC,[4],2 µg/mL
same,MIC,[5],4 µg/mL
same,MIC,[6],2 µg/mL
same,MIC,[7],2 µg/mL
same,MIC,[8],4 µg/mL
same,MIC,[9],4 µg/mL
same,MIC,[10],2 µg/mL
same,MIC,[11],16 µg/mL
same,MIC,[12],> 32 µg/mL
same,MIC,[13],2 µg/mL
same,MIC,[14],2 µg/mL
same,MIC,[15],32 µg/mL
same,MIC,[16],32 µg/mL
same,MIC,[17],4 µg/mL
same,MIC,[18],> 32 µg/mL
same,MIC,[19],8 µg/mL
same,MIC,[20],16 µg/mL
same,MIC,[21],16 µg/mL
same,MIC,[22],8 µg/mL
same,MIC,[23],8 µg/mL
same,MIC,[24],8 µg/mL
same,MIC,[25],16 µg/mL
same,MIC,[26],8 µg/mL
same,MIC,[27],16 µg/mL
same,MIC,[28],8 µg/mL
same,MIC,[29],> 32 µg/mL
same,MIC,[30],32 µg/mL
same,MIC,[31],16 µg/mL
same,MIC,[32],16 µg/mL
O=C1NC(=O)C2(Cc3cc(-c4ccc(N5C[C@H](CO)OC5=O)cc4F)ccc3N3CCCCC32)C(=O)N1 (stereo not given in full),MIC,[1],0.25 µg/mL
same,MIC,[2],2 µg/mL
same,MIC,[3],2 µg/mL
same,MIC,[4],4 µg/mL
same,MIC,[5],4 µg/mL
same,MIC,[6],2 µg/mL
same,MIC,[7],2 µg/mL
same,MIC,[8],4 µg/mL
same,MIC,[9],4 µg/mL
same,MIC,[10],2 µg/mL
same,MIC,[11],16 µg/mL
same,MIC,[12],16 µg/mL
same,MIC,[13],2 µg/mL
same,MIC,[14],≤ 1 µg/mL
same,MIC,[15],32 µg/mL
same,MIC,[16],> 32 µg/mL
same,MIC,[17],4 µg/mL
same,MIC,[18],> 32 µg/mL
same,MIC,[19],1 µg/mL
same,MIC,[20],2 µg/mL
same,MIC,[21],2 µg/mL
same,MIC,[22],1 µg/mL
same,MIC,[23],1 µg/mL
same,MIC,[24],1 µg/mL
same,MIC,[25],2 µg/mL
same,MIC,[26],2 µg/mL
same,MIC,[27],2 µg/mL
same,MIC,[28],1 µg/mL
same,MIC,[29],8 µg/mL
same,MIC,[30],4 µg/mL
same,MIC,[31],2 µg/mL
same,MIC,[32],2 µg/mL
CC(=O)NC[C@H]1CN(c2ccc(-c3ccc4c(c3)CC3(C(=O)NC(=O)NC3=O)C3CCCN43)c(F)c2)C(=O)O1 (stereo not given in full),MIC,[1],2 µg/mL
same,MIC,[2],2 µg/mL
same,MIC,[3],2 µg/mL
same,MIC,[4],2 µg/mL
same,MIC,[5],4 µg/mL
same,MIC,[6],2 µg/mL
same,MIC,[7],4 µg/mL
same,MIC,[8],2 µg/mL
same,MIC,[9],4 µg/mL
same,MIC,[10],≤ 1 µg/mL
same,MIC,[11],16 µg/mL
same,MIC,[12],16 µg/mL
same,MIC,[13],2 µg/mL
same,MIC,[14],≤ 1 µg/mL
same,MIC,[15],32 µg/mL
same,MIC,[16],> 32 µg/mL
same,MIC,[17],2 µg/mL
same,MIC,[18],> 32 µg/mL
same,MIC,[19],2 µg/mL
same,MIC,[20],4 µg/mL
same,MIC,[21],2 µg/mL
same,MIC,[22],1 µg/mL
same,MIC,[23],2 µg/mL
same,MIC,[24],1 µg/mL
same,MIC,[25],2 µg/mL
same,MIC,[26],2 µg/mL
same,MIC,[27],4 µg/mL
same,MIC,[28],2 µg/mL
same,MIC,[29],16 µg/mL
same,MIC,[30],4 µg/mL
same,MIC,[31],2 to 4 µg/mL
same,MIC,[32],4 µg/mL
CC(=O)NC[C@H]1CN(c2ccc(N3CCOCC3)c(F)c2)C(=O)O1 [LINEZOLID],MIC,[1],4 µg/mL
same,MIC,[2],2 µg/mL
same,MIC,[3],0.5 to 4 µg/mL
same,MIC,[4],2 to 4 µg/mL
same,MIC,[5],4 to 32 µg/mL
same,MIC,[6],2 to 4 µg/mL
same,MIC,[8],2 to 4 µg/mL
same,MIC,[9],2 to 4 µg/mL
same,MIC,[11],2 to 32 µg/mL
same,MIC,[12],2 to 32 µg/mL
same,MIC,[13],2 to 4 µg/mL
same,MIC,[14],2 µg/mL
same,MIC,[15],> 32 µg/mL
same,MIC,[16],> 32 µg/mL
same,MIC,[17],2 to 8 µg/mL
same,MIC,[18],> 32 µg/mL
same,MIC,[20],> 32 µg/mL
same,MIC,[21],2 to 4 µg/mL
same,MIC,[23],2 µg/mL
same,MIC,[24],0.5 µg/mL
same,MIC,[27],2 µg/mL
same,MIC,[29],> 32 µg/mL
same,MIC,[31],2 µg/mL
CN[C@H](CC(C)C)C(=O)N[C@H]1C(=O)N[C@@H](CC(N)=O)C(=O)N[C@H]2C(=O)N[C@H]3C(=O)N[C@H](C(=O)N[C@H](C(=O)O)c4cc(O)cc(O)c4-c4cc3ccc4O)[C@H](O)c3ccc(c(Cl)c3)Oc3cc2cc(c3O[C@@H]2O[C@H](CO)[C@@H](O)[C@H](O)[C@H]2O[C@H]2C[C@](C)(N)[C@H](O)[C@H](C)O2)Oc2ccc(cc2Cl)[C@H]1O [VANCOMYCIN],MIC,[19],> 32 µg/mL
same,MIC,[20],2 µg/mL
same,MIC,[26],2 µg/mL
same,MIC,[31],> 32 µg/mL
